Laboratory results reported in article PMC3640069 (PLoS ONE, 2013).
Read-outs that look alike come from different tables or passages of the source. Marks after values point to notes of the source that are not given here.

How the values were obtained:
SHR = system: SHR; parameters: method as in 5 sources, ref 30 = [30]; PMID 7673515; doi:10.3168/jds.S0022-0302(95)76745-5; 30 Nakamura Y , Yamamoto N , Sakai K , Takano T ( 1995 ) Antihypertensive effect of sour milk and peptides isolated from it that are inhibitors to angiotensin I-converting enzyme . J Dairy Sci 78 : 12 ||| ref 31 = [31]; PMID 8880454; doi:10.3168/jds.S0022-0302(96)76487-1; 31 Maeno M , Yamamoto N , Takano T ( 1996 ) Identification of an antihypertensive peptide from casein hydrolysate produced by a proteinase from Lactobacillus helveticus CP790 . J Dairy Sci 79 : 1316 – ||| ref 32 = [32]; PMID 9891260; doi:10.3168/jds.S0022-0302(98)75878-3; 32 Abubakar A , Saito T , Kittazawa H , Kawai Y , Itoh T ( 1998 ) Structural analysis of new antihypertensive peptides derived from cheese whey protein by proteinase K digestion . J Dairy Sci 81 : 313 ||| ref 33 = [33]; PMID 10794501; doi:10.1016/s0024-3205(00)00471-9; 33 Nurminen ML , Sipola M , Kaarto H , Pihlanto-Leppälä A , Piilola K , et al ( 2000 ) α-Lactorphin lowers blood pressure measured by radiotelemetry in normotensive and spontaneously hypertensive rats ||| ref 34 = [34]; 34 Miguel M , Contreras MM , Recio I , Aleixandre A ( 2009 ) ACE-inhibitory and antihypertensive properties of a bovine casein hydrolysate . Food Chemistry 112 : 211 – 214 .; conditions: cited from earlier work
[1] = normoglycemic and normotensive animal model; cited from earlier work
Excerpt: It is necessary to evaluate the ACE-inhibitor effect on the blood glucose level of hyperpietics simultaneously since blood sugar was positively correlated with blood pressure (systolic and diastolic), and this correlation was independent of common associations with age, body mass index (BMI) and heart rate.

ACE = conditions: literature value; cited from earlier work
Excerpt: In the past decades, researchers have focused on the natural nutraceutical resources and investigated the potential antihypertensive activity in vitro by ACE-inhibitory activity, [5]. Some natural phytochemicals from plants, including rutin, quercetin glycoside, epicatechin-tetramer and cyanidin-3-O-sambubioside have been extensively studied as a substitute for chemo-pharmaceuticals [6]–[8]. Also, some antihypertensive peptides have been identified from hydrolyzed or fermented milk and other dietary sources. Among them, the Isoleucine-Proline-Proline (IPP) and Valine-Proline- ...

SERCA 2a gene = assay: Quantitative real time-PCR of SERCA 2a gene mRNA in SHR heart; assay type: in vivo, rat; conditions: 3 h after feeding the peptide, GAPDH reference, three biological replicates
Method: Quantitative real time-PCR (qRT-PCR) analysis was performed using SYBR Premix EX Taq (TaKaRa) on a Rotor-Gene R[…] detection system (Corbett Research) as described by Zhang et al. (2010) with the exception of the annealing temperature at 58 °C when using the primers […]) and […]), [26]. Gene GAPDH was used as reference gene with primer […]) and […]). Three biological replicates were used, and each with three technical repeats.

ACE from rabbit lungs = assay: ACE inhibitory activity in vitro (HHL hydrolysis, HPLC of hippuric acid); assay type: biochemical; conditions: 10 µmol/L peptide, crude ACE extract from rabbit lung, 5 mmol/L HHL, 37°C, 10 min pre-incubation + 20 min, RP-HPLC 228 nm, mean ± SD
Method: ACE extracts were prepared and its activity was determined according to the method of Nakamura et al. and Wu & Ding with some modifications. Briefly, the fresh rabbit lung without connective tissues was cut into pieces and washed with precooled NaCl (0.7%) to get rid of blood. The tissue pieces were homogenized in precooled 5-fold the volume of fresh rabbit lung weight (v/w, mL/g) of 100 mM sodium borate buffer (BBS) (pH 8.3). The mixtures were then filtrated with 3-ply gauze followed by ultracentrifuged for 40 min (40,000 g, at 4°C). The supernatant as crude ACE extracts was retained and stored at 5°C [24].
The ACE activity was assayed using the method described by Wu & Ding. It was based on the hydrolysis of hippuryl-L-histidyl-L-leucine (HHL) by ACE to hippuric acid (HA) and histidyl-leucine (HL) as products. The HA release from HHL was directly related to the ACE activity. One unit (U) of ACE was defined as the amount of enzyme catalyzing the release of 1 µmol/L HA from the substrate HHL per minute at 37°C. Briefly, 30 µL of ACE crude extracts were mixed with 100 µL of BBS (pH 8.3). The mixture was incubated at 37°C for 10 min. Then, 200 µL of 5 mmol/L HHL solution substrate were added and the reaction mixture was incubated at 37°C for 20 min. The reaction was stopped by the addition of 250 µL of 1 mol/L HCl. 10 µL of solution were analyzed by reversed-phase HPLC and detected at the wavelength of λ = 228 nm. The column was eluted with 20% acetonitrile (in water, v/v) containing 0.1% (v/v) TFA on AKATA purifier 10 with a flow rate of 1.0 mL/min. The blank experiment was executed with premixing 250 µL of 1 mol/L HCl and 30 µL of ACE crude extracts to inhibit the activity of ACE.
Evaluation of ACE inhibitory activity was assayed using the same method described in above section with some modifications. Briefly, 2 µL of ACE crude extracts were mixed with 80 µL of 10 µmol/L each selected peptide solution. The mixture was incubated at 37°C for 10 min, after which 200 µL of 5 mmol/L HHL solution substrate were added and the reaction mixture was incubated at 37°C for 20 min. Finally, 250 µL of 1 mol/L HCl were added to stop the reaction and 10 µL of solution were used to analyze HA release from HHL by reversed-phase HPLC with the same condition described above and detected at the wavelength of λ = 228 nm. Controls with equal volume of BBS as sample substitute were included for each measurement, and the blank experiment was executed with premixing 250 µL of 1 mol/L HCl and 2 µL of ACE crude extracts to inhibit the activity of ACE, firstly.
The evaluation of ACE inhibition was based on the measurement of the HA peak areas, and the degree of ACE inhibition (%) was calculated according to Eq.1: [drawing 1] (Eq.1) […]

[2] = system: spontaneously hypertensive rats (SHR/Slac); assay: Systolic blood pressure of SHR after single intragastric administration (tail-cuff); assay type: in vivo, rat; conditions: for dose-dependence of the lowering SBP effect: 0.75 versus […] BW, relative lowering SBP rate
Method: The spontaneously hypertensive, strain SHR/Slac male rats (Production Permit Number: SCXK (Shanghai) 2007-0005; Body weight, average ∼400 g; Age, 20 weeks old), were purchased from Shanghai SLAC Laboratory Animal Co. Ltd. (Shanghai, China). The SHR were housed in cages and maintained under specific pathogen-free conditions on a cycle of 12 h of light and 12 h of darkness at Center of Experimental Animal, School of Pharmacy, Shanghai Jiao Tong University (Use Permit Number: SYXK (Shanghai) 2007-0025). The temperature and humidity in the cages were controlled at 24±1°C and 60±5%, respectively. SHRs were acclimatized for 7 days prior to experimentation. The rats were fed a standard laboratory diet (SLACOM; Shanghai, China), and tap water was freely available. After the hexapeptide water-solution (dose, 1.5 mg/kg body weight) injection with intragastric administration in six SHR, the systolic blood pressure (SBP) of each rat was measured by the tail-cuff method with a programmable electrosphygmomanometer (model SoftronBP-98A; Softron Beijing Incorporated, Beijing, China) at 1 h interval. A heater lamp was on the tail to improve signal quality. To obtain an accurate SBP reading, rats were first habituated to the SBP measurement device. Definitive measurements began when rats remained unperturbed into the chamber throughout the inflation-deflation cycles. The SBP in each SHR with administration of distilled water (2 mL) was used as the control value. The data are expressed as means and standard errors (n = 6).
To evaluate whether the lowering SBP effect was the dose-dependence relative to the test peptides, the SHR were also treated with 0.75 mg/kg BW peptides water-solution as above program. And the relative lowering SBP effect was calculated as the following equation (Eq.2): [drawing 2] (Eq.2) where SBPinitial is the initial SBP values of SHR right before the peptide administration, SBPlowest is the lowest SBP value obtained within 5 h after the administration with the tested peptides.

Compound | transcriptional level of SERCA 2a gene (SERCA 2a gene) | ACE inhibition rate (%) (ACE from rabbit lungs) | dose-dependence of the lowering SBP effect [2] | other results
C[C@H](CS)C(=O)N1CCC[C@H]1C(=O)O [captopril] | – | – | – | decrease in SBP (SHR; male SHR, 50 mg/kg, 4–6 h after administration): about 53±4 mmHg; effect on postprandial blood glucose levels [1]: no significant effect
Isoleucine-Proline-Proline [IPP] | 3.80 times of the control | 56.97±2.40^a % | dose-dependent effect | IC50 (ACE): 5 µM; decrease in SBP (SHR; SHR, 0.3 mg/kg BW): 21.7±4.1 mmHg
Isoleucine-Proline-Proline-Valine- Proline-Proline [IPPVPP] | 2.70 times of the control | 13.17±0.25^c % | did not | –
KVLPVPQ [heptapeptide KVLPVPQ (β-casein 169–175aa)] | – | – | – | maximal decrease in SBP (SHR; SHR, 2 mg/kg BW): 31.5±5.6 mmHg
Valine-Proline-Proline [VPP] | – | 37.62±6.68^b % | – | IC50 (ACE): 9 µM
Valine-Proline-Proline-Isoleucine-Proline-Proline [VPPIPP] | 3.98 times of the control | 34.71±4.38^b % | dose-dependent effect | relative lowering SBP rate, comparison between peptides ([2]; 0.75 mg/kg BW, intragastric): did not show significantly different from IPPVPP and IPP
YGLF [whey protein derived tetrapeptide] | – | – | – | reduction of SBP (SHR; SHR, subcutaneous, 0.1 mg/kg BW): 23±4 mmHg
